Test results taken from US6713506B2, “Tea polyphenol esters and analogs thereof for cancer prevention and treatment” (University of South Florida, priority 2000, dated 2004).

Key:
purified calpain I = molecular target: T1, purified calpain I (Homo sapiens, UniProt P07384); experiment: Calpain I activity assay; type: biochemical; conditions: for inhibition of purified calpain I activity (in words): 10 μM, FIG. 16A
T1 construct: 3 μg purified calpain I (Human Erythrocytes, Calbiochem) is incubated; purchased Calbiochem; host or cells: human erythrocytes (tissue-purified)
T1 sequence (P07384 1-714): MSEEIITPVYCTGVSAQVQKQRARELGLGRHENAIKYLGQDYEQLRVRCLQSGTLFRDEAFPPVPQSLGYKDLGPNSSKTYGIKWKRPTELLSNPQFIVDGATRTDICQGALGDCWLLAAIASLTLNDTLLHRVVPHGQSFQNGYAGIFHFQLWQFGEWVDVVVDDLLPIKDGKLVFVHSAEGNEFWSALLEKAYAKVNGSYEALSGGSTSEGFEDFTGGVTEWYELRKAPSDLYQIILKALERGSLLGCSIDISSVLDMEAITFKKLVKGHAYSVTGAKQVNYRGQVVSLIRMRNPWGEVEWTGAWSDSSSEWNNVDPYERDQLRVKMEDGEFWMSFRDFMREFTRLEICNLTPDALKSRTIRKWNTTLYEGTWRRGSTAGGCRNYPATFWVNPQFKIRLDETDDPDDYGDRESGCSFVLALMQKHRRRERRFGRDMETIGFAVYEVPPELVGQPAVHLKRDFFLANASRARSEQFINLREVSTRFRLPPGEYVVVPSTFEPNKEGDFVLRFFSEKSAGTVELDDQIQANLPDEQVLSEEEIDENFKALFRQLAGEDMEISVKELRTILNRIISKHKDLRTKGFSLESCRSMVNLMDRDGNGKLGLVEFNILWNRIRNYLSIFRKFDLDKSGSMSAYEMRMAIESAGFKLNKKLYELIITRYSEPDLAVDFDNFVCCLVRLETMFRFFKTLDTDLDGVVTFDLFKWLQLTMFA
T1 sequence (P04632 1-268 partner): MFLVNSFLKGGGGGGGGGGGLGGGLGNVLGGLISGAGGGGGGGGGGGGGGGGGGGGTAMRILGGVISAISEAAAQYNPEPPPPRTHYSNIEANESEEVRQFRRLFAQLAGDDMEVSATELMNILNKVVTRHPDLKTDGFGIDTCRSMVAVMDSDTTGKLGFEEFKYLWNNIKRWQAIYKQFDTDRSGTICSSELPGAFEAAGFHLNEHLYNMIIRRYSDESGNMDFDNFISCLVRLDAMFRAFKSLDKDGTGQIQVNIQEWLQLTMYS
Protocol: FIG. 8. […] A). […] Initially, 0.5 μg of purified 20S proteasome is incubated with 20 μM of a fluorogenic peptide substrate, Suc-Leu-Leu-Val-Tyr-AMC, for 30 min at 37° C. in 100 μl of assay buffer (20 mM Tris-HCl, pH 8.0) with various concentrations of tannic acid. After incubation, the reaction mixture is diluted to 200 μl with the assay buffer, followed by measurement of the hydrolyzed 7-amido-4-methyl-coumarin (AMC) groups using a fluorometer with an excitation filter of 380 nm and an emission filter of 460 nm. B). […] Tannic acid (0.3 μg/ml) and Glucose (180 μg/ml) are used in the proteasome activity assay as described above. C). […] Purified calpain I (3 μg) protein is incubated with 40 μM of a fluorogenic peptide substrate, Suc-Leu-Tyr-AMC, for 30 min at 37° C. in 100 μl of assay buffer (50 mM Tris-HCl, pH 7.5, containing 50 mM NaCl, 1 mM EDTA, 1 mM EGTA, 5 mM β-Mercaptoethanol, 5 mM CaCl2, and 0.1% CHAPS) in the absence (control) or presence of 5 μg/ml of tannic acid or 0.18 μg/ml of calpeptin (calpain inhibitor).

[1] = system: p27, IκB-α, ubiquitinated proteins, Bax in Jurkat T cells; experiment: Western blot of proteasome substrates in Jurkat T cells; type: cell-based, human; conditions: for levels of p27: intact Jurkat T cells, 1 or 10 μM, 12 h
Protocol: FIG. 5. Western blot analysis. A, Jurkat T cells are treated with 1 or 10 μM of EGCG or EGC for 12 h, or B, C, 25 μM of EGCG for various times, followed by Western blot assay using specific antibodies to p27, IκB-α, ubiquitin or actin, as indicated. MWs of IκB-α and actin are 40 and 43 kDa, respectively. The band of 56 kDa, indicated by an arrow in (B), is an ubiquitinated or phosphorylated form of IκB-α. The bands indicated in (C) are ubiquitin-containing proteins. D, LNCaP cells are treated with 1 or 10 μM of EGCG for 12 h. Western bot is performed as described above. E, F, Jurkat T cells are pretreated with 10 μg/ml cycloheximide for 2 hr, followed by co-incubation with 1 or 10 μM of EGCG for 8 or 12 hr as indicated. The p70 is a putative ubiquitinated p27-containing complex (An et al., 1998, Cell Death Differ 5: 1062-75).
FIG. 11. Western blot assay. Western blot assay is performed using specific antibodies to p27^Kip, Bax, poly(ADP-ribose) polymerase (PARP), or actin. Jurkat T cells are treated with 50 μg/ml of tannic acid for 4, 12 or 24 h. Cells are harvested and lysated using the whole lysis buffer (50 mM Tris-HCl, pH 8.0, 5 mM EDTA, 150 mM NaCl, 0.5% NP-40, 0.5 mM PMSF, and 0.5 mM DTT). Cell lysates (70 μg) are separated on a sodium dodecyl sulfate-polyacrylamide gel electrophoresis (SDS-PAGE), followed by Western blot analysis.
Western blot analysis—Western blot assay is performed as described previously (An et al., (1998) Cell Death Differ 5(12), 1062-75) using specific antibodies to p27^Kip (monoclonal; Pharmingen), IκB-α (polyclonal; Santa Cruz), ubiquitin (polyclonal; Sigma) or actin (polyclonal; Santa Cruz). In brief, Jurkat T or LNCaP cells are treated with EGCG or EGC in dose-response or time-dependent manner. Cells are harvested and lysated using the whole lysis buffer. Cell lysates (70 μg) are separated by a sodium dodecyl sulfate-polyacrylamide gel electrophoresis (SDS-PAGE) and then, electrophoretically transferred to a nitrocellulose membrane. Immunocomplexes are detected using the ECL detection reagents kit (Amersham, Piscataway, N.J.).

[2] = Jurkat T cells, 25 μM EGCG, various times
[3] = cycloheximide-pretreated Jurkat T cells, 10 μM

Row | Structure (SMILES) | inhibition of purified calpain I activity (in words) (purified calpain I) | levels of p27 [1] | inhibition of purified calpain activity (in words) (purified calpain I; FIG. 3B: EGCG 10 μM, calpeptin 1 μM) | levels of IκB-α [1, 2] | levels of ubiquitinated proteins [1, 2] | levels of IκB protein [1, 3] | levels of p27 protein [1, 3] | level of p70 (putative ubiquitinated p27-containing protein) ([1]; cycloheximide-pretreated Jurkat T cells, co-incubation) | induction of IκB expression compared with LLnV ([1]; cycloheximide-pretreated Jurkat T cells, same concentration (10 μM)) | inhibition of calpain activity (in words) (purified calpain I; tannic acid 5 μg/ml) | p27Kip and Bax levels ([1]; Jurkat T cells, tannic acid 50 μg/ml, 4, 12 or 24 h)
1 | Oc1cc(O)c2c(c1)O[C@H](c1cc(O)c(O)c(O)c1)[C@H](O)C2 [EGC, (−)-epigallocatechin] | Neither EGCG nor EGC at 10 μM inhibits | does not | – | – | – | – | – | – | – | – | –
2 | O=C(O[C@@H]1Cc2c(O)cc(O)cc2O[C@@H]1c1cc(O)c(O)c(O)c1)c1cc(O)c(O)c(O)c1 [EGCG, (−)-epigallocatechin-3-gallate] | Neither EGCG nor EGC at 10 μM inhibits | greatly increases | but not EGCG, is able to inhibit | increases | increases | increases | dramatically increased | increase | even greater than that of the proteasome inhibitor LLnV | – | –
3 | O=C(OC[C@H]1O[C@@H](OC(=O)c2cc(O)c(O)c(OC(=O)c3cc(O)c(O)c(O)c3)c2)[C@H](OC(=O)c2cc(O)c(O)c(OC(=O)c3cc(O)c(O)c(O)c3)c2)[C@@H](OC(=O)c2cc(O)c(O)c(OC(=O)c3cc(O)c(O)c(O)c3)c2)[C@@H]1OC(=O)c1cc(O)c(O)c(OC(=O)c2cc(O)c(O)c(O)c2)c1)c1cc(O)c(O)c(OC(=O)c2cc(O)c(O)c(O)c2)c1 [tannic acid] | – | – | – | – | – | – | – | – | – | does not inhibit | induction
